Values joined by “and” are separate entries in the source; they are usually repeats but may differ in a detail not shown here. Equal values may be shown once. Square brackets hold non-standard residues; d marks the D form. Peptide text beside a SMILES is read from it. Ava = NCCCCC(=O)O
Tests used:
Format in all cases: cell-based
[1] = tested on: HIV-1 NL 4-3; assay: HIV-1 infection of C8166 cells (syncytia formation, p24 ELISA) with HIV-1 NL 4-3; parameters: key: ++, +, (+), (+)− and − represent decreasing numbers of syncitia formed; ++, +, (+), (+)− and − represent decreasing numbers of syncitia formed; ++, +, (+), (+)− and − represent decreasing numbers of syncitia formed; ++, +, (+), (+)− and − represent decreasing numbers of syncitia formed; ++, +, (+), (+)− and − represent decreasing numbers of syncitia formed; details: Table 6
Description: (§1) HIV-1 NL 4-3 isolate (Adachi et al., 1986; Barré-Sinoussi et al., 1983) and highly cytopathic Zairian HIV-1 NDK isolate (Ellrodt et al., 1984) was propagated in permissive CEM cells (Nara et al., 1987). Uninfected CEM and C8166 (Salahuddin et al., 1983) were maintained in RPMI 1640 (R10) with ultraglutamine (cambrex, Vervier, Belgium), penicillin (100 U/ml), streptomycin (100 μg/ml), and 10% heat-inactivated fetal calf serum (Cambrex).
(§2) Samples of 3×10^5/100 μL C8166 cells were preincubated in 96-well microtiter plates in culture medium containing various concentrations of peptide. After a 1 h treatment at 37° C., 100 μl of diluted viral solution of HIV-1 was added. The cells were exposed to the virus for 1 h at 37° C. at a multiplicity of infection of 1000 TCID50 per ml. The cells were washed three times and cultured at 3×10^5/ml of R10 with the treatment in 24-well plates incubated at 37° C. C8166 culture medium was replaced at Day-4 post-infection. The treatment was permanent before virus adsorption, during virus adsorption and after infection. Assays on C8166 cells have been performed at least twice and in duplicate. Toxicity was evaluated by daily cell count and trypan-blue exclusion assay. Infection of C8166 T-cells with HIV-1 was assessed by virus-induced cytopathic effects (syncytia formation) and by quantification of cell free p24 viral protein in the culture supernatants. Measurements of HIV-1 p24^gag concentration in the culture supernatants were achieved by ELISA (ALLIANCE® HIV-1 p24 kit, Perkin Elmer, life sciences, USA).

[2] = tested on: HIV-1 NDK; assay: HIV-1 infection of C8166 cells (syncytia formation, p24 ELISA) with HIV-1 NDK; parameters: key to syncitia formed, Day 4 / syncitia formed, Day 5 / syncitia formed, Day 6 / syncitia formed, Day 7: ++, +, (+), (+)− and − represent decreasing numbers of syncitia formed; ++, +, (+), (+)− and − represent decreasing numbers of syncitia formed; ++, +, (+), (+)− and − represent decreasing numbers of syncitia formed; ++, +, (+), (+)− and − represent decreasing numbers of syncitia formed; ++, +, (+), (+)− and − represent decreasing numbers of syncitia formed; details: for P 24: P 24 after Day 7
Description: as §1, §2

[3] = tested on: HIV-1 NL 4-3; assay: HIV-1 infection of C8166 cells (syncytia formation, p24 ELISA) with HIV-1 NL 4-3; parameters: key to syncitia formed, Day 4 / syncitia formed, Day 5 / syncitia formed, Day 6 / syncitia formed, Day 7: ++, +, (+), (+)− and − represent decreasing numbers of syncitia formed; ++, +, (+), (+)− and − represent decreasing numbers of syncitia formed; ++, +, (+), (+)− and − represent decreasing numbers of syncitia formed; ++, +, (+), (+)− and − represent decreasing numbers of syncitia formed; ++, +, (+), (+)− and − represent decreasing numbers of syncitia formed
Summary of the method: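 C8166 T-cells were preincubated with peptide for 1 h at 37 °C, then exposed for 1 h to HIV-1 at 1000 TCID50/ml, washed, and cultured with peptide kept present throughout, with medium replaced at day 4. Infection was scored by syncytia formation and by supernatant p24 ELISA, with at least two runs in duplicate.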

[4] = C8166 cells, HIV-1 subtype B NL 4-3, Table 9, two lines = tested twice, 8 days apart

Structure (SMILES): NCC(=O)N1CCC[C@H]1C(=O)NCC(=O)NCCCCC(=O)O [GPG valeric acid, GPG-NHCH2CH2CH2CH2COOH] (H-GPG[Ava]-OH; N-terminus assumed)
- Day 4 syncitia formed ([1]; 0.005 μM): −
- Day 5 syncitia formed ([1]; 0.005 μM): +
- Day 6 syncitia formed ([1]; 0.005 μM): ++
- Day 4 syncitia formed ([1]; 0.01 μM): −
- Day 5 syncitia formed ([1]; 0.01 μM): +
- Day 6 syncitia formed ([1]; 0.01 μM): +
- Day 7 syncitia formed ([1]; 0.01 μM): ++
- Day 4 syncitia formed ([1]; 0.05 μM): −
- Day 5 syncitia formed ([1]; 0.05 μM): −
- Day 6 syncitia formed ([1]; 0.05 μM): (+)
- Day 7 syncitia formed ([1]; 0.05 μM): +
- Day 4 syncitia formed ([1]; 0.1 μM): −
- Day 5 syncitia formed ([1]; 0.1 μM): −
- Day 6 syncitia formed ([1]; 0.1 μM): (+)
- Day 7 syncitia formed ([1]; 0.1 μM): +
- Day 4 syncitia formed ([1]; 0.5 μM): −
- Day 5 syncitia formed ([1]; 0.5 μM): −
- Day 6 syncitia formed ([1]; 0.5 μM): −
- Day 7 syncitia formed ([1]; 0.5 μM): −
- Day 4 syncitia formed ([1]; 1 μM): −
- Day 5 syncitia formed ([1]; 1 μM): −
- Day 6 syncitia formed ([1]; 1 μM): −
- Day 7 syncitia formed ([1]; 1 μM): −
- Day 4 syncitia formed ([1]; 5 μM): −
- Day 5 syncitia formed ([1]; 5 μM): −
- Day 6 syncitia formed ([1]; 5 μM): −
- Day 7 syncitia formed ([1]; 5 μM): −
- syncitia formed, Day 4 ([2]; 0.005 μM): (+)
- syncitia formed, Day 5 ([2]; 0.005 μM): +
- syncitia formed, Day 6 ([2]; 0.005 μM): ++
- syncitia formed, Day 7 ([2]; 0.005 μM): ++
- P 24 ([2]; 0.005 μM): 23810 pg/mL
- syncitia formed, Day 4 ([2]; 0.01 μM): (+)
- syncitia formed, Day 5 ([2]; 0.01 μM): +
- syncitia formed, Day 6 ([2]; 0.01 μM): ++
- syncitia formed, Day 7 ([2]; 0.01 μM): ++
- P 24 ([2]; 0.01 μM): 23810 pg/mL
- syncitia formed, Day 4 ([2]; 0.05 μM): −
- syncitia formed, Day 5 ([2]; 0.05 μM): (+)
- syncitia formed, Day 6 ([2]; 0.05 μM): ++
- syncitia formed, Day 7 ([2]; 0.05 μM): ++
- P 24 ([2]; 0.05 μM): 11810 pg/mL and 15879 pg/mL
- syncitia formed, Day 4 ([2]; 0.1 μM): −
- syncitia formed, Day 5 ([2]; 0.1 μM): −
- syncitia formed, Day 6 ([2]; 0.1 μM): +
- syncitia formed, Day 7 ([2]; 0.1 μM): ++
- P 24 ([2]; 0.1 μM): 3507 pg/mL and 3670 pg/mL
- syncitia formed, Day 4 ([2]; 0.5 μM): −
- syncitia formed, Day 5 ([2]; 0.5 μM): −
- syncitia formed, Day 6 ([2]; 0.5 μM): +
- syncitia formed, Day 7 ([2]; 0.5 μM): ++
- P 24 ([2]; 0.5 μM): 2578 pg/mL and 3140 pg/mL
- syncitia formed, Day 4 ([2]; 1 μM): −
- syncitia formed, Day 5 ([2]; 1 μM): −
- syncitia formed, Day 6 ([2]; 1 μM): −
- syncitia formed, Day 7 ([2]; 1 μM): +
- P 24 ([2]; 1 μM): 2810 pg/mL and 1840 pg/mL
- syncitia formed, Day 4 ([2]; 5 μM): −
- syncitia formed, Day 5 ([2]; 5 μM): −
- syncitia formed, Day 6 ([2]; 5 μM): −
- syncitia formed, Day 7 ([2]; 5 μM): (+)
- P 24 ([2]; 5 μM): 284 pg/mL and 217 pg/mL
- IC50 ([2]; HIV 1 NDK, Table 10): 20 nM
- IC100 ([2]; HIV 1 NDK, Table 10): 5 µM
- Day 7 syncitia formed ([3]; 0.005 μM, Table 6): ++/T
- syncitia formed, Day 4 ([3]; 0.01 μM, C8166 cells): −
- syncitia formed, Day 5 ([3]; 0.01 μM, C8166 cells): (+)
- syncitia formed, Day 6 ([3]; 0.01 μM, C8166 cells): +
- syncitia formed, Day 7 ([3]; 0.01 μM, Day 7, C8166 cells): ++
- syncitia formed, Day 4 ([3]; 0.05 μM, C8166 cells): −
- syncitia formed, Day 5 ([3]; 0.05 μM, C8166 cells): −
- syncitia formed, Day 6 ([3]; 0.05 μM, C8166 cells): (+)
- syncitia formed, Day 7 ([3]; 0.05 μM, Day 7, C8166 cells): +
- P 24 ([3]; 0.05 μM, P 24 after Day 7, C8166 cells): 3810 pg/mL and 2300 pg/mL
- syncitia formed, Day 4 ([3]; 0.1 μM, C8166 cells): −
- syncitia formed, Day 5 ([3]; 0.1 μM, C8166 cells): −
- syncitia formed, Day 6 ([3]; 0.1 μM, C8166 cells): (+)
- syncitia formed, Day 7 ([3]; 0.1 μM, Day 7, C8166 cells): +
- P 24 ([3]; 0.1 μM, P 24 after Day 7, C8166 cells): 108 pg/mL and 130 pg/mL
- syncitia formed, Day 4 ([3]; 0.5 μM, C8166 cells): −
- syncitia formed, Day 5 ([3]; 0.5 μM, C8166 cells): −
- syncitia formed, Day 6 ([3]; 0.5 μM, C8166 cells): −
- syncitia formed, Day 7 ([3]; 0.5 μM, Day 7, C8166 cells): (+)
- syncitia formed, Day 4 ([3]; 1 μM, C8166 cells): −
- syncitia formed, Day 5 ([3]; 1 μM, C8166 cells): −
- syncitia formed, Day 6 ([3]; 1 μM, C8166 cells): −
- syncitia formed, Day 7 ([3]; 1 μM, Day 7, C8166 cells): −
- P 24 ([3]; 1 μM, P 24 after Day 7, C8166 cells): 86 pg/mL and 74 pg/mL
- syncitia formed, Day 4 ([3]; 5 μM, C8166 cells): −
- syncitia formed, Day 5 ([3]; 5 μM, C8166 cells): −
- syncitia formed, Day 6 ([3]; 5 μM, C8166 cells): −
- syncitia formed, Day 7 ([3]; 5 μM, Day 7, C8166 cells): −
- P 24 ([3]; 5 μM, P 24 after Day 7, C8166 cells): 60 pg/mL and 34 pg/mL
- IC50 [3, 4]: 10 nM
- IC100 [3, 4]: 0.5 µM and 1 µM
- P 24 ([3]; Day 7, 0.005 μM, Table 6): 23810 pg/mL
- P 24 ([3]; Day 7, 0.01 μM, Table 6): 11810 pg/mL and 13740 pg/mL
- P 24 ([3]; Day 7, 0.5 μM, Table 6): 3.5 pg/mL and 5.6 pg/mL
- P 24 ([3]; Day 7, 1 μM, Table 6): 5.636 pg/mL and 4.8 pg/mL
- P 24 ([3]; Day 7, 5 μM, Table 6): 5.6 pg/mL and 3.2 pg/mL
